For this experiment, the target named is T1, PDZD7 PDZ1ext (81-192) (Mus musculus, UniProt E9Q9W7).
T1 construct: PDZ1 (81-167), PDZ1ext (81-192); GST (followed by TEV site) (N, cleaved yes); made in house; host or cells: E. coli BL21 DE3
T1 sequence (E9Q9W7 81-192): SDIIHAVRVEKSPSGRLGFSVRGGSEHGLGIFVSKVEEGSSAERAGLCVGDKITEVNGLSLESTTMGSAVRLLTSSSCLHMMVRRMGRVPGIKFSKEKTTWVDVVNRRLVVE
Nature of the experiment: NMR titration of PDZ1ext with ADGRV1 ligands. To be noted: NMR titration (1H-15N HSQC CSP), Tris HCl pH 7.5 (50 mM), 25°C; SD of Kd over at least ten shifting peaks; read-out: Kd. The format is binding, murine. The protocol:
All experiments were recorded at 25°C on a Bruker 800 MHz spectrometer equipped with a triple resonance ^1H{^13C/^15N} cryoprobe. The ^1H, ^15 N and ^13C backbone resonances assignment of PDZ1ext was carried out using 3D HNCA, HNCACB, HNCO, HNCOCA experiments (Tris HCl buffer adjusted to pH 6). The 2D ^1H-^15N HSQC spectra used to compare PDZ1, PDZ1ext, PDZ2 and PDZ2ext were recorded in Tris HCl pH 7.5 (50 mM). The 2D ^1H-^15N HSQC spectra used to compare PDZ1ext, PDZ2ext and P1P2 were recorded in Phosphate Buffer pH 6.5 (50 mM). Titration experiments of PDZ1 (WT), PDZ1ext (WT) and PDZ1ext (G103R) against ADGRV1pbm peptide were performed in Tris HCl pH 7.5 (50 mM). Averaged Chemical Shifts Perturbations (CSP) were calculated as: Δδavg = ((Δδ(^1H))^2+(Δδ(^15N)*0.159)^2)^½. […]
We monitored the interaction between PDZD7 constructs and a peptide (ADGRV1pbm) corresponding to the last 13 residues of ADGRV1, encompassing its PBM (sequence VELRRIPIADTHL-COOH; PBM underlined). We measured apparent Kd values of our constructs towards ADGRV1pbm using several biophysical methods (NMR, fluorescence, MicroScale Thermophoresis (MST)) (Table 1; Supplementary Figure S3–S5). […]

Where no end group is shown, it is not given here.

With VELRRIPIADTHL [ADGRV1pbm], the Kd was determined as 47 ± 6 µM.

Broadly, the Kd is a measure of binding affinity in units of concentration.

The values above are taken from article PMC9274004, “Deciphering the Molecular Interaction Between the Adhesion G Protein-Coupled Receptor ADGRV1 and its PDZ-Containing Regulator PDZD7” (Frontiers in Molecular Biosciences, 2022).
